The supplement of paper PMC10307832

Tests used:
Experiment in all cases: relative viability (nuclei count vs DMSO), 5 days (fraction); higher = more cells survive
AZD5582 + Linsitinib = compound: C[C@@H](C(=O)N[C@@H](C1CCCCC1)C(=O)N2CCC[C@H]2C(=O)N[C@@H]3[C@@H](CC4=CC=CC=C34)OCC#CC#CCO[C@@H]5CC6=CC=CC=C6[C@@H]5NC(=O)[C@@H]7CCCN7C(=O)[C@H](C8CCCCC8)NC(=O)[C@H](C)NC)NC [AZD5582] + C[C@]1(O)C[C@@H](c2nc(-c3ccc4ccc(-c5ccccc5)nc4c3)c3c(N)nccn32)C1 [Linsitinib] (partner 1 µM)
Outline: (§1)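 Dosing by pin tool came one day after lung cancer cell lines were seeded in 1536-well plates, using either one drug or a fixed anchor-drug dose plus five library-drug doses (not always all listed) in √10 steps. After 5 days, nuclei were counted on 4× images. Relative viability is treated-well nuclei count divided by vehicle-well nuclei count, and values are medians of duplicate plates.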

AZD5582 + Tozasertib = compound: C[C@@H](C(=O)N[C@@H](C1CCCCC1)C(=O)N2CCC[C@H]2C(=O)N[C@@H]3[C@@H](CC4=CC=CC=C34)OCC#CC#CCO[C@@H]5CC6=CC=CC=C6[C@@H]5NC(=O)[C@@H]7CCCN7C(=O)[C@H](C8CCCCC8)NC(=O)[C@H](C)NC)NC [AZD5582] + Cc1cc(Nc2cc(N3CCN(C)CC3)nc(Sc3ccc(NC(=O)C4CC4)cc3)n2)n[nH]1 [Tozasertib] (partner 0.1 µM)
Outline: as §1

AZD5582 + Bortezomib = compound: C[C@@H](C(=O)N[C@@H](C1CCCCC1)C(=O)N2CCC[C@H]2C(=O)N[C@@H]3[C@@H](CC4=CC=CC=C34)OCC#CC#CCO[C@@H]5CC6=CC=CC=C6[C@@H]5NC(=O)[C@@H]7CCCN7C(=O)[C@H](C8CCCCC8)NC(=O)[C@H](C)NC)NC [AZD5582] + CC(C)C[C@H](NC(=O)[C@H](Cc1ccccc1)NC(=O)c1cnccn1)B(O)O [Bortezomib] (partner 0.002 µM)
Outline: as §1

AZD5582 + Olaparib = compound: C[C@@H](C(=O)N[C@@H](C1CCCCC1)C(=O)N2CCC[C@H]2C(=O)N[C@@H]3[C@@H](CC4=CC=CC=C34)OCC#CC#CCO[C@@H]5CC6=CC=CC=C6[C@@H]5NC(=O)[C@@H]7CCCN7C(=O)[C@H](C8CCCCC8)NC(=O)[C@H](C)NC)NC [AZD5582] + O=C(c1cc(Cc2n[nH]c(=O)c3ccccc23)ccc1F)N1CCN(C(=O)C2CC2)CC1 [Olaparib] (partner 8 µM)
Outline: as §1

AZD5582 + Lapatinib = compound: C[C@@H](C(=O)N[C@@H](C1CCCCC1)C(=O)N2CCC[C@H]2C(=O)N[C@@H]3[C@@H](CC4=CC=CC=C34)OCC#CC#CCO[C@@H]5CC6=CC=CC=C6[C@@H]5NC(=O)[C@@H]7CCCN7C(=O)[C@H](C8CCCCC8)NC(=O)[C@H](C)NC)NC [AZD5582] + CS(=O)(=O)CCNCc1ccc(-c2ccc3ncnc(Nc4ccc(OCc5cccc(F)c5)c(Cl)c4)c3c2)o1 [Lapatinib] (partner 2 µM)
Outline: as §1

Row | Cell Line | relative viability (AZD5582 + Linsitinib; first compound 0.001581 µM) | relative viability (AZD5582 + Linsitinib; first compound 0.005 µM) | relative viability (AZD5582 + Linsitinib; first compound 0.01581 µM) | relative viability (AZD5582 + Linsitinib; first compound 0.05 µM) | relative viability (AZD5582 + Tozasertib; first compound 0.001581 µM) | relative viability (AZD5582 + Tozasertib; first compound 0.005 µM) | relative viability (AZD5582 + Tozasertib; first compound 0.01581 µM) | relative viability (AZD5582 + Tozasertib; first compound 0.05 µM) | relative viability (AZD5582 + Bortezomib; first compound 0.001581 µM) | relative viability (AZD5582 + Bortezomib; first compound 0.005 µM) | relative viability (AZD5582 + Bortezomib; first compound 0.01581 µM) | relative viability (AZD5582 + Bortezomib; first compound 0.05 µM) | relative viability (AZD5582 + Olaparib; first compound 0.001581 µM) | relative viability (AZD5582 + Olaparib; first compound 0.005 µM) | relative viability (AZD5582 + Olaparib; first compound 0.01581 µM) | relative viability (AZD5582 + Olaparib; first compound 0.05 µM) | relative viability (AZD5582 + Lapatinib; first compound 0.001581 µM) | relative viability (AZD5582 + Lapatinib; first compound 0.005 µM) | relative viability (AZD5582 + Lapatinib; first compound 0.01581 µM) | relative viability (AZD5582 + Lapatinib; first compound 0.05 µM)
1 | NCI-H2347 | 0.914 | 1.08 | 0.972 | 0.952 | 0.561 | 0.523 | 0.5 | 0.553 | 0.73 | 0.949 | 0.693 | 0.929 | 0.496 | 0.624 | 0.581 | 0.525 | 0.882 | 0.944 | 0.818 | 0.712
2 | SK-LU-1 | 0.613 | 0.495 | 1.23 | 0.273 | 0.229 | 0.205 | 0.343 | 0.13 | 0.436 | 0.697 | 0.856 | 0.477 | 0.353 | 0.274 | 0.466 | 0.142 | 0.645 | 0.639 | 0.859 | 0.317
3 | NCI-H2087 | 0.879 | 0.948 | 0.961 | 0.902 | 0.23 | 0.218 | 0.319 | 0.289 | 0.874 | 0.861 | 0.735 | 0.933 | 0.442 | 0.604 | 0.607 | 0.719 | 0.929 | 1.06 | 0.808 | 1.08
4 | NCI-H727 | 0.309 | 0.253 | 0.465 | 0.258 | 0.651 | 0.732 | 0.58 | 0.78 | 0.761 | 0.932 | 0.851 | 1.04 | 0.698 | 0.73 | 0.65 | 0.781 | 0.613 | 0.868 | 0.822 | 0.89
5 | NCI-H520 | 0.808 | 0.948 | 0.967 | 0.923 | 0.441 | 0.394 | 0.544 | 0.51 | 0.702 | 0.826 | 0.432 | 0.757 | 0.302 | 0.274 | 0.382 | 0.365 | 0.738 | 0.945 | 0.818 | 1.01
6 | NCI-H1734 | 0.953 | 0.869 | 0.895 | 1.1 | 0.255 | 0.263 | 0.257 | 0.313 | 0.959 | 0.963 | 0.966 | 1.14 | 0.569 | 0.59 | 0.615 | 0.746 | 1.03 | 1.2 | 0.99 | 1.23
7 | A-427 | 1.01 | 1.04 | 1.12 | 0.955 | 0.201 | 0.198 | 0.221 | 0.167 | 0.92 | 0.954 | 0.938 | 0.891 | 0.678 | 0.716 | 0.729 | 0.59 | 0.865 | 0.996 | 0.942 | 0.831
8 | NCI-H2023 | 0.666 | 0.741 | 0.691 | 0.677 | 0.209 | 0.345 | 0.499 | 0.305 | 0.934 | 1.1 | 0.721 | 0.716 | 0.401 | 0.381 | 0.48 | 0.412 | 0.64 | 1.15 | 0.553 | 0.462
9 | NCI-H1915 | 1.08 | 1.13 | 1.11 | 0.905 | 0.379 | 0.452 | 0.447 | 0.42 | 0.938 | 0.991 | 0.92 | 0.855 | 0.279 | 0.244 | 0.25 | 0.226 | 0.923 | 1.02 | 0.873 | 0.89
10 | NCI-H1755 | 1.01 | 1.02 | 0.982 | 1.09 | 0.523 | 0.652 | 0.599 | 0.587 | 0.925 | 1.02 | 0.936 | 1.02 | 0.843 | 0.966 | 0.938 | 0.939 | 1.01 | 1.08 | 0.95 | 1.03
11 | NCI-H650 | 0.649 | 0.758 | 0.431 | 0.564 | 0.648 | 0.876 | 0.722 | 0.628 | 0.757 | 0.654 | 0.57 | 0.582 | 0.321 | 0.32 | 0.366 | 0.307 | 0.592 | 0.787 | 0.428 | 0.606
12 | NCI-H3122 | 1.02 | 1.03 | 0.967 | 0.313 | 0.157 | 0.178 | 0.477 | 0.121 | 1.03 | 0.954 | 1.07 | 0.729 | 0.634 | 0.557 | 0.641 | 0.537 | 0.966 | 1.1 | 1.05 | 0.413
13 | COR-L 105 | 0.923 | 1.02 | 0.909 | 1.17 | 0.373 | 0.404 | 0.282 | 0.418 | 0.768 | 0.877 | 0.69 | 0.827 | 0.619 | 0.673 | 0.729 | 0.732 | 0.351 | 0.424 | 0.315 | 0.421
14 | NCI-H1993 | 0.688 | 0.657 | 0.724 | 0.705 | 0.599 | 0.681 | 0.547 | 0.567 | 1.06 | 1.38 | 1.15 | 1.1 | 0.982 | 1.16 | 1.06 | 1.12 | 0.792 | 0.82 | 0.78 | 0.843
15 | BEN | 0.718 | 1.01 | 0.91 | 1.09 | 0.479 | 0.53 | 0.577 | 0.51 | 0.786 | 0.87 | 0.911 | 0.579 | 1.09 | 0.985 | 1.02 | 1.17 | 0.478 | 0.67 | 0.764 | 0.417
16 | NCI-H2009 | 1.2 | 1.21 | 1.2 | 1.16 | 0.715 | 0.774 | 0.761 | 0.788 | 0.838 | 1.13 | 0.61 | 0.9 | 0.636 | 0.703 | 0.706 | 0.751 | 0.632 | 0.861 | 0.452 | 0.62
17 | NCI-H2228 | 0.903 | 0.689 | 0.813 | 0.44 | 0.191 | 0.27 | 0.333 | 0.161 | 0.857 | 1.34 | 1.36 | 0.439 | 0.629 | 0.61 | 0.618 | 0.333 | 0.614 | 0.739 | 1.05 | 0.34
18 | PC-14 | 0.895 | 1.02 | 0.902 | 0.958 | 0.521 | 0.595 | 0.558 | 0.6 | 0.736 | 0.777 | 0.85 | 0.743 | 0.183 | 0.148 | 0.306 | 0.136 | 0.301 | 0.391 | 0.33 | 0.223
19 | EKVX | 0.872 | 1.12 | 0.875 | 1.14 | 0.309 | 0.41 | 0.388 | 0.371 | 1.02 | 1.02 | 0.934 | 0.575 | 0.777 | 0.894 | 0.725 | 0.854 | 0.207 | 0.209 | 0.169 | 0.199
